In experiment [1] the target is T1, Beta-secretase 1 (Homo sapiens, UniProt P56817). In words: Inhibition of human recombinant BACE1 at 2 uM.
The target of experiment [2] is T1, Beta-secretase 1. Nature of the experiment: Inhibition of BACE1 expressed in HEK293 cells at 100 uM. The class given is cell-based.
For experiment [3], the target named is T1, Beta-secretase 1. Nature of the experiment: Inhibition of human recombinant BACE1 at 0.2 uM.
Experiment [4] addresses T1, Beta-secretase 1. In words: Inhibition of human recombinant BACE1.

T1 sequence (P56817 whole entry): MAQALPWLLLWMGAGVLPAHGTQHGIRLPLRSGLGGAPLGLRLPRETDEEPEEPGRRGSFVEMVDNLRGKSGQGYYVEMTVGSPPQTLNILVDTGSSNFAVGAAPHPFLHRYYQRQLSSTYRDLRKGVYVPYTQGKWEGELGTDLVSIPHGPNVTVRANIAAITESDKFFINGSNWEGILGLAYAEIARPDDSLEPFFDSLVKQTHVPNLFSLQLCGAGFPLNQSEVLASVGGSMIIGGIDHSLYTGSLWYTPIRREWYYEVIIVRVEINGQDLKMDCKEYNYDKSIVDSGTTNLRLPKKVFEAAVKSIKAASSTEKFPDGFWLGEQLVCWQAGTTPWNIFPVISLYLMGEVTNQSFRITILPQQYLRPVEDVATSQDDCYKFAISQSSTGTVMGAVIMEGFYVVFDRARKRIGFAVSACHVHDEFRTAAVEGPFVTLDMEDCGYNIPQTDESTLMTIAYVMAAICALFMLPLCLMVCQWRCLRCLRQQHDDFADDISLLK

Take `CC(C)C[C@H](NC(=O)[C@@H](NC(=O)[C@@H](N)CNC(=O)c1ccccc1O)C(C)C)C(=O)N[C@@H](Cc1ccccc1)[C@@H](O)C(=O)Nc1cccc(C(=O)O)c1`: the inhibition (usually the relative decrease from the control value, in per cent) was 75% in experiment [1] and 29% in experiment [2].

In the case of `CC(C)C[C@H](NC(=O)[C@@H](NC(=O)[C@@H](N)CNC(=O)c1ccc(O)cc1O)C(C)C)C(=O)N[C@@H](Cc1ccccc1)[C@@H](O)C(=O)Nc1cccc(C(=O)O)c1`, the inhibition in experiment [1] was 86%; in experiment [3], 59%; in experiment [2], 20%.

With `CC(C)[C@H](NC(=O)[C@@H](N)CNC(=O)c1nnn[nH]1)C(=O)N[C@@H](CC1CCCCC1)C(=O)N[C@@H](Cc1ccccc1)[C@@H](O)C(=O)Nc1cccc(-c2nnn[nH]2)c1`, in experiment [4], the 50% inhibitory concentration (IC50) – broadly, the concentration that gives 50% inhibition – was 3.3 nM.

With `CC(C)[C@H](NC(=O)[C@@H](N)CNC(=O)c1cc(O)ccc1O)C(=O)N[C@@H](CC1CCCCC1)C(=O)N[C@@H](Cc1ccccc1)[C@@H](O)C(=O)Nc1cccc(-c2nn[nH]n2)c1`, the inhibition in experiment [1] was found to be 99%; in experiment [3] it was 92%; in experiment [2], 69%.

Turning to `CC(C)C[C@H](NC(=O)[C@@H](NC(=O)[C@@H](N)CNC(=O)c1cccc(O)c1)C(C)C)C(=O)N[C@@H](Cc1ccccc1)[C@@H](O)C(=O)Nc1cccc(C(=O)O)c1`, the values for the inhibition in experiment [1], in experiment [3] and in experiment [2] were 91%, 49% and 57%, respectively.

With `CC(C)C[C@H](NC(=O)[C@@H](NC(=O)[C@@H](N)CNC(=O)c1cccc(O)c1O)C(C)C)C(=O)N[C@@H](Cc1ccccc1)[C@@H](O)C(=O)Nc1cccc(C(=O)O)c1`, the inhibition was 89% in experiment [1], 75% in experiment [3] and 0% in experiment [2].

Regarding `CC(C)C[C@H](NC(=O)[C@@H](NC(=O)[C@@H](N)CNC(=O)c1nc(O)nc(O)c1F)C(C)C)C(=O)N[C@@H](Cc1ccccc1)[C@@H](O)C(=O)Nc1cccc(C(=O)O)c1`, the inhibition in experiment [1] is 99%; in experiment [3], 82%; in experiment [2], 76%.

As for `CC(C)C[C@H](NC(=O)[C@@H](NC(=O)[C@@H](N)CNC(=O)c1nc(O)nc(O)c1I)C(C)C)C(=O)N[C@@H](Cc1ccccc1)[C@@H](O)C(=O)Nc1cccc(C(=O)O)c1`, the figures for the inhibition in experiment [1], in experiment [3] and in experiment [2] were 99%, 72% and 73%, respectively.

`CC(C)C[C@H](NC(=O)[C@@H](NC(=O)[C@@H](N)CNC(=O)c1ccoc1)C(C)C)C(=O)N[C@@H](Cc1ccccc1)[C@@H](O)C(=O)Nc1cccc(C(=O)O)c1`: the inhibition in experiment [1] was determined as 82%; in experiment [3], 38%; in experiment [2], 4%.

With `CC(C)C[C@H](NC(=O)[C@@H](NC(=O)[C@@H](N)CNC(=O)c1[nH]c(=O)[nH]c(=O)c1F)C(C)C)C(=O)N[C@@H](Cc1ccccc1)[C@@H](O)C(=O)Nc1cccc(-c2nnn[nH]2)c1`, the IC50 in experiment [4] was 6.5 nM.

On to `CC(C)C[C@H](NC(=O)[C@@H](NC(=O)[C@@H](N)CNC(=O)c1cc(O)ccc1O)C(C)C)C(=O)N[C@@H](Cc1ccccc1)[C@@H](O)C(=O)Nc1cccc(-c2nn[nH]n2)c1`, for which the inhibition in experiment [1] was 99%; in experiment [3], 93%; in experiment [2], 65%.

As for `CC(C)C[C@H](NC(=O)[C@@H](NC(=O)[C@@H](N)CNC(=O)[C@@H]1CC(=O)NC(=O)N1)C(C)C)C(=O)N[C@@H](Cc1ccccc1)[C@@H](O)C(=O)Nc1cccc(C(=O)O)c1`, the inhibition in experiment [1] came out at 40%.

Regarding `CC(C)C[C@H](NC(=O)[C@@H](NC(=O)[C@@H](N)CNC(=O)c1cc(O)ccc1O)C(C)C)C(=O)N[C@@H](Cc1ccccc1)[C@@H](O)C(=O)Nc1cccc(C(=O)O)c1`, the inhibition in experiment [1] came out at 98%; in experiment [3], 84%; in experiment [2] it was 58%.

`CC(C)C[C@H](NC(=O)[C@@H](NC(=O)[C@@H](N)CNC(=O)c1cc[nH]c1)C(C)C)C(=O)N[C@@H](Cc1ccccc1)[C@@H](O)C(=O)Nc1cccc(C(=O)O)c1`: the inhibition in experiment [1] stood at 69%.

With `CC(C)C[C@H](NC(=O)[C@@H](NC(=O)[C@@H](N)CNC(=O)c1[nH]c(=O)[nH]c(=O)c1F)C(C)C)C(=O)N[C@@H](Cc1ccccc1)[C@@H](O)C(=O)Nc1cccc(-c2nn[nH]n2)c1`, the inhibition worked out at 100% in experiment [1], 98% in experiment [3] and 63% in experiment [2].

As to `CC(C)[C@H](NC(=O)[C@@H](N)CNC(=O)c1[nH]c(=O)[nH]c(=O)c1F)C(=O)N[C@@H](CC1CCCCC1)C(=O)N[C@@H](Cc1ccccc1)[C@@H](O)C(=O)Nc1cccc(-c2nn[nH]n2)c1`, the values for the inhibition in experiment [1], in experiment [3] and in experiment [2] were 100%, 97% and 84%, respectively.

As to `CC(C)C[C@H](NC(=O)[C@@H](NC(=O)[C@@H](N)CNC(=O)c1cc(O)nc(O)n1)C(C)C)C(=O)N[C@@H](Cc1ccccc1)[C@@H](O)C(=O)Nc1cccc(C(=O)O)c1`, the results for the inhibition in experiment [1], in experiment [3] and in experiment [2] were 90%, 54% and 46%, respectively.

Turning to `CC(C)C[C@H](NC(=O)[C@@H](NC(=O)[C@@H](N)CNC(=O)c1nn[nH]n1)C(C)C)C(=O)N[C@@H](Cc1ccccc1)[C@@H](O)C(=O)Nc1cccc(-c2nn[nH]n2)c1`, the inhibition in experiment [1] turned out to be 100%; in experiment [3] it was 98%; in experiment [2] it was 66%.

As to `CC(C)C[C@H](NC(=O)[C@@H](NC(=O)[C@@H](N)CNC(=O)[C@H]1CC(=O)NC(=O)N1)C(C)C)C(=O)N[C@@H](Cc1ccccc1)[C@@H](O)C(=O)Nc1cccc(C(=O)O)c1`, the inhibition in experiment [1] is 13%.

On to `CC(C)[C@H](NC(=O)[C@@H](N)CNC(=O)c1[nH]c(=O)[nH]c(=O)c1F)C(=O)N[C@@H](CC1CCCCC1)C(=O)N[C@@H](Cc1ccccc1)[C@@H](O)C(=O)Nc1cccc(-c2nnn[nH]2)c1`, for which the IC50 in experiment [4] worked out at 5.6 nM.

`CC(C)[C@H](NC(=O)[C@@H](N)CNC(=O)c1nn[nH]n1)C(=O)N[C@@H](CC1CCCCC1)C(=O)N[C@@H](Cc1ccccc1)[C@@H](O)C(=O)Nc1cccc(-c2nn[nH]n2)c1`: the inhibition stood at 100% in experiment [1], 98% in experiment [3] and 59% in experiment [2].

On to `CC(C)C[C@H](NC(=O)[C@@H](NC(=O)[C@@H](N)CNC(=O)c1cc(O)cc(O)c1)C(C)C)C(=O)N[C@@H](Cc1ccccc1)[C@@H](O)C(=O)Nc1cccc(C(=O)O)c1`, for which the inhibition in experiment [1] came out at 94%; in experiment [3], 60%; in experiment [2] it was 69%.

The record behind these values is ChEMBL document CHEMBL1145305, “beta-Secretase inhibitors: modification at the P4 position and improvement of inhibitory activity in cultured cells” (Bioorg Med Chem Lett, 2006).
